According to US20120301866A1, “LIQUID FORMULATION HAVING DISSOLVED GASES USEFUL FOR PRESERVING BIOLOGICAL MATERIAL” (L'Air Liquide, Société Anonyme pour I'Etude et …, priority 2010, published 2012):
Entries after “also recorded” stand apart in the source; their conditions may differ.

Key:
Type in all cases: in vivo
rat kidneys [1] = test: Rat kidney transplantation after cold storage in gas-saturated Celsior solution: renal function (creatinine clearance, urinary albumin); settings: for overall effect on the preservation of a renal graft: compared with the other experimental groups; for level of albumin in the urine (urinary albumin): kidney stored 6 h at 4 °C, atmospheric pressure, in gas-saturated Celsior, days 7 and 14 after transplantation
Protocol: In accordance with the present invention, argon gas was dissolved in a liquid organ preservation solution available on the market, i.e. the CELSIOR solution, the composition of which is given in table 1, in order to obtain a liquid formulation in accordance with the present invention.
For the purposes of comparison, other gases, i.e. xenon, air and nitrogen, were dissolved in the same type of liquid solution.
(§1) In order to evaluate the renal graft preservation properties of argon or other gases, rat kidneys were removed and stored in a gas-saturated liquid solution according to the present invention.
(§2) After six hours of organ preservation at a temperature of 4° C. and at atmospheric pressure, the rat kidneys are transplanted and the survival time, renal function and reperfusion/ischemia injuries are studied by means of biochemical and histological analyses.
On days 0 (pretransplantation), 7 and 14 (after transplantation), biochemical analyses, i.e. creatinine clearance and urinary albumin, are carried out in the manner described by M. Yin et al., in “Carolina rinse solution minimizes kidney injury and improves graft function and survival after prolonged cold ischemia.” Transplantation 2002; 73:1410-1420).
Creatinine clearance is a parameter that is used to evaluate renal function. A high clearance corresponds to good renal function, while the presence of albumin in the urine (urinary albumin) indicates renal damage since, normally, there is no albumin in the urine when the kidney is normal.

rat kidneys [2] = test: Immunohistochemistry of transplanted rat kidneys (anti-active caspase-3, anti-CD10); settings: day 14 after transplantation; for active caspase-3 expression (immunohistochemistry): marker for apoptosis
Protocol: In order to evaluate the renal graft preservation properties of argon or other gases, rat kidneys were removed and stored in a gas-saturated liquid solution according to the present invention. After six hours of organ preservation at a temperature of 4° C. and at atmospheric pressure, the rat kidneys are transplanted and the survival time, renal function and reperfusion/ischemia injuries are studied by means of biochemical and histological analyses. Immunodetections were carried out on serial cryostat sections 5 μm thick, using certain specific antibodies, i.e. anti-active caspase-3 and anti-CD10. The kidneys of a normal rat are used as control. After having been rinsed, the sections are incubated for 30 minutes with biotinylated secondary antibodies and they are then visualized using avidin-biotin peroxidase.

rat kidneys [3] = test: Histology of transplanted rat kidneys (hematoxylin-eosin-safran, optical microscopy); settings: day 14 after transplantation; kidney stored 6 h at 4 °C in gas-saturated solution
Protocol: as §1, §2
On day 14 after transplantation, the kidneys are removed, weighed and cut into blocks. The kidneys are then fixed with a buffered 4% formaldehyde infusion for 24 h and they are embedded in paraffin. Five-micrometer sections are obtained from the blocks and stained with hematoxylin-eosin-safran in order to examine them by optical microscopy.

| SMILES | overall effect on the preservation of a renal graft (rat kidneys [1]) | level of albumin in the urine (urinary albumin) (rat kidneys [1]) | active caspase-3 expression (immunohistochemistry) (rat kidneys [2]) | histological observations of transverse kidney sections (rat kidneys [3]) | CD10 expression (immunohistochemistry) (rat kidneys [2]; weak CD10 expression corresponds to a damaged kidney) |
| --- | --- | --- | --- | --- | --- |
| [Xe] [xenon, reference compound] | some good effects | an effect greater than that which was obtained with the controls, but which is less than that obtained with argon | the active caspase-3 expression has been lost because of the serious acute tubular necrosis |  |  |
| [Ar] [argon] | very positive and advantageous effects | much lower than the levels of albumin (urinary albumin) obtained with the other transplanted kidneys | discrete and focal losses | the architectural integrity of the kidney is preserved without any obvious glomerular modification; also recorded: intact normal morphology as in the control group, with no modification nor any necrosis | discrete and focal losses of CD 10 expression |
| N#N [nitrogen, reference compound] |  |  | significant expression of active caspase-3 |  |  |
